From PubChem BioAssay (NCI)
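A five-concentration, 48-hour dose response in 96-well plates underlies each endpoint, interpolated linearly between surrounding concentrations. GI50 = concentration required for 50% inhibition of growth. TGI: concentration producing complete growth inhibition.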

Key:
Assay in all cases: NCI tumour cell line growth inhibition, 48 h
[1] = tested on: A498 renal
[2] = tested on: A549 NSCLC
[3] = tested on: DU-145 prostate
[4] = tested on: HOP-92 NSCLC
[5] = tested on: KM12 colon
[6] = tested on: NCI/ADR-RES ovarian
[7] = tested on: OVCAR-8 ovarian
[8] = tested on: RXF 393 renal
[9] = tested on: SNB-19 CNS
[10] = tested on: U251 CNS

SMILES	GI50 [1] [µM]	TGI [1] [µM]	GI50 [2] [µM]	TGI [2] [µM]	GI50 [3] [µM]	TGI [3] [µM]	GI50 [4] [µM]	TGI [4] [µM]	GI50 [5] [µM]	TGI [5] [µM]	GI50 [6] [µM]	TGI [6] [µM]	GI50 [7] [µM]	TGI [7] [µM]	GI50 [8] [µM]	TGI [8] [µM]	GI50 [9] [µM]	TGI [9] [µM]	GI50 [10] [µM]	TGI [10] [µM]
COc1ccc2c(c1)=C(C=C1C=CN(O)C=C1)C(=O)N=2	19.7	> 73.2	29.8	> 100	32.5	> 100	25.9	> 100	17.4	41.3	30.3	> 86.9	29.9	99.7	33.9	98.3	10.6	64.8	27.3	> 100
O=C(Nc1ccc(F)cc1)Nc1ccccc1CNc1nc(Nc2ccc(OCCN3CCCC3)cc2)ncc1Cl	1.42	8.21	2.72	20.9	2.48	8.06	0.849	2.49	1.81	6.35	2.59	10.4	1.83	12.2	0.895	1.88	3	11.1	1.28	3.73
CN(Cc1ccc(Cl)cc1)c1ccc(CO)c(Cl)c1	0.0464	0.179	3.9	17.8	10.8	25.5	3.16	16.1	13	27.2	8	25.4	7.05	27.4	3.57	16.8	16.8	51.6	3.01	15.9
CCC[CH2][Sn]([CH2]CCC)([O]C(=O)c1cc(F)ccc1F)[O][Sn]([CH2]CCC)([CH2]CCC)[O]C(=O)c1cc(F)ccc1F	0.238	0.631	1.77	3.68	0.646	1.92	0.148	0.491	0.999	2.32	0.522	1.88	0.374	1.57	0.0472	0.191	0.667	1.76	0.175	0.584
C/C=C/C/C=C/CCC(=O)[C@H]1O[C@H]1C(N)=O	17.4	43.7	17.3	51.3	13.7	27.1	10.8	26.3	17.2	32	–	> 100	17.7	> 74.3	5.07	19.1	14.5	29.5	14.5	28.3
Fc1ccc(-c2nn3c(-c4ccc(F)c(Cl)c4)nnc3s2)cc1	> 50	> 50	21.2	> 50	36.3	> 50	15.6	> 50	> 50	> 50	23.8	> 50	37.1	> 50	0.688	18.7	20.1	> 50	18.5	> 50
